Experimental findings from PubChem BioAssay AID256 (DTP/NCI, 2004) are described below.

Each structure is given as a SMILES string. “And” between values parts separate entries of the source, which are not always exact repeats. Equal entries are not always repeated. Toxic doses and inconclusive results are not listed.

In this experiment the test system is CD2F1 mice, L1210 leukemia ip, survival T/C. In words: NCI In Vivo Anticancer Drug Screen. Data for tumor model L1210 Leukemia (intraperitoneal) in CD2F1 (CDF1) mice. Conditions: higher = longer survival. In short, it runs like this:
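Implant tumor; dose compound or vehicle; measure endpoint in both groups; report treated divided by control.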

Setting [1] is: endpoint: mean survival time, dose: 100.0 mg/kg/injection, schedule: Q04DX002 (ip), vehicle: saline with Tween-80.
[2] abbreviates: endpoint: mean survival time, dose: 200.0 mg/kg/injection, schedule: Q04DX002 (ip), vehicle: saline with Tween-80.
Where [3] appears, read: endpoint: mean survival time, dose: 100.0 mg/kg/injection, schedule: Q04DX003 (ip), vehicle: saline with Tween-80.
Setting [4] is: endpoint: mean survival time, dose: 200.0 mg/kg/injection, schedule: Q04DX003 (ip), vehicle: saline with Tween-80.
[5] abbreviates: endpoint: mean survival time, dose: 400.0 mg/kg/injection, schedule: Q04DX003 (ip), vehicle: saline with Tween-80.
The mark [6] stands for this setting: endpoint: mean survival time, dose: 50.0 mg/kg/injection, schedule: Q01DX009 (ip), vehicle: saline with Tween-80.
Setting [7] is: endpoint: mean survival time, dose: 100.0 mg/kg/injection, schedule: Q01DX009 (ip), vehicle: saline with Tween-80.
Setting [8] is: endpoint: mean survival time, dose: 400.0 mg/kg/injection, schedule: Q04DX002 (ip), vehicle: saline with Tween-80.
Where [9] appears, read: endpoint: mean survival time, dose: 100.0 mg/kg/injection, schedule: Q04DX003 (ip), vehicle: saline.
The mark [10] stands for this setting: endpoint: mean survival time, dose: 200.0 mg/kg/injection, schedule: Q04DX003 (ip), vehicle: saline.
[11] abbreviates: endpoint: mean survival time, dose: 12.5 mg/kg/injection, schedule: Q04DX003 (ip), vehicle: saline with Tween-80.
Setting [12] is: endpoint: mean survival time, dose: 25.0 mg/kg/injection, schedule: Q04DX003 (ip), vehicle: saline with Tween-80.
Where [13] appears, read: endpoint: mean survival time, dose: 200.0 mg/kg/injection, schedule: Q01DX009 (ip), vehicle: saline with Tween-80.
[14] abbreviates: endpoint: mean survival time, dose: 400.0 mg/kg/injection, schedule: Q01DX009 (ip), vehicle: saline with Tween-80.

For `O=C1C2C3CC4C5C3C1C5C1(OCCO1)C42` (stereo not drawn), the T/C is 107 % of control (endpoint: mean survival time, dose: 25.0 mg/kg/injection, schedule: Q04DX002 (ip), vehicle: saline with Tween-80); 107 % of control (endpoint: mean survival time, dose: 50.0 mg/kg/injection, schedule: Q04DX002 (ip), vehicle: saline with Tween-80); 100 % of control under setting [1]; 107 % of control under setting [2].
As to `Cc1cc(C(O)(C(=O)O)c2ccccc2)c(C)c(C)c1C` (stereo not drawn), the T/C by setting is: (endpoint: mean survival time, dose: 75.0 mg/kg/injection, schedule: Q01DX001 (ip), vehicle: other) 90 % of control; (endpoint: mean survival time, dose: 150.0 mg/kg/injection, schedule: Q01DX001 (ip), vehicle: other) 94 % of control; (endpoint: mean survival time, dose: 300.0 mg/kg/injection, schedule: Q01DX001 (ip), vehicle: other) 102 % of control.
With `C=CCOc1cccc[n+]1CC(=O)CC(O)(C(F)(F)F)C(F)(F)F`, the T/C under setting [3] is 95 % of control, the T/C under setting [4] was 92 % of control and the T/C under setting [5] was 97 % of control.
Turning to `Cc1ccc2nc(-c3ccc(NC(=O)Nc4cccc(F)c4)cc3)sc2c1`, the T/C is, setting by setting: under setting [6], 97 % of control; under setting [7], 97 % of control.
In the case of `NNC(=O)Nc1cccnc1`, the T/C was 106 % of control (endpoint: mean survival time, dose: 18.75 mg/kg/injection, schedule: Q01DX009 (ip), vehicle: saline); 98 % of control (endpoint: mean survival time, dose: 37.5 mg/kg/injection, schedule: Q01DX009 (ip), vehicle: saline); 101 % of control (endpoint: mean survival time, dose: 75.0 mg/kg/injection, schedule: Q01DX009 (ip), vehicle: saline).
`OC1C2CC3C1C3C2O` (stereo not drawn): the T/C under setting [3] is 94 % of control, the T/C under setting [4] is 97 % of control and the T/C under setting [5] is 105 % of control.
With `O=C(CBr)Nc1ccc2[nH]c3cnccc3c2c1`, the T/C was 101 % of control under setting [1], 104 % of control under setting [2] and 97 % of control under setting [8].
Take `NS(=O)(=O)c1ccc(N=Nc2ccc([As](=O)(O)O)cc2)cc1`: the T/C (endpoint: mean survival time, dose: 50.0 mg/kg/injection, schedule: Q04DX003 (ip), vehicle: saline) is 104 % of control; the T/C under setting [9] was 101 % of control; the T/C under setting [10] was 101 % of control.
In the case of `[Cl][Pt+2][Cl].[NH-]CC1(C[NH-])CCCC1`, the T/C (endpoint: mean survival time, dose: 1.56 mg/kg/injection, schedule: Q04DX003 (ip), vehicle: saline) is 122 % of control; the T/C (endpoint: mean survival time, dose: 3.12 mg/kg/injection, schedule: Q04DX003 (ip), vehicle: saline) was 152 % of control; the T/C (endpoint: mean survival time, dose: 6.25 mg/kg/injection, schedule: Q04DX003 (ip), vehicle: saline) was 197 % of control; the T/C under setting [11] is 160 % of control; the T/C (endpoint: mean survival time, dose: 12.5 mg/kg/injection, schedule: Q04DX003 (ip), vehicle: saline) is 260 % of control; the T/C under setting [12] was 98 % of control. The T/C (endpoint: mean survival time, dose: 25.0 mg/kg/injection, schedule: Q04DX003 (ip), vehicle: saline) was 114 % of control; the T/C (endpoint: median survival time, dose: 1.0 mg/kg/injection, schedule: Q01DX009 (ip), vehicle: saline) is 232 % of control; the T/C (endpoint: median survival time, dose: 2.0 mg/kg/injection, schedule: Q01DX009 (ip), vehicle: saline) is 175 % of control; the T/C (endpoint: median survival time, dose: 4.0 mg/kg/injection, schedule: Q01DX001 (ip), vehicle: saline) is 201 % of control; the T/C (endpoint: median survival time, dose: 4.0 mg/kg/injection, schedule: Q01DX009 (ip), vehicle: saline) was 101 % of control; the T/C (endpoint: median survival time, dose: 8.0 mg/kg/injection, schedule: Q01DX001 (ip), vehicle: saline) is 200 % of control. Further, the T/C reads like this: (endpoint: median survival time, dose: 8.0 mg/kg/injection, schedule: Q01DX009 (ip), vehicle: saline) 97 % of control; (endpoint: median survival time, dose: 12.0 mg/kg/injection, schedule: Q01DX001 (ip), vehicle: saline) 104 % of control; (endpoint: median survival time, dose: 18.0 mg/kg/injection, schedule: Q01DX001 (ip), vehicle: saline) 97 % of control.
In the case of `CCOc1ccc(Nc2nc(C(Cl)(Cl)Cl)cc(C(Cl)(Cl)Cl)n2)cc1CN(CC)CC`, the T/C by setting is: (endpoint: mean survival time, dose: 6.25 mg/kg/injection, schedule: Q01DX009 (ip), vehicle: saline with Tween-80) 101 % of control; (endpoint: mean survival time, dose: 6.25 mg/kg/injection, schedule: Q04DX003 (ip), vehicle: saline with Tween-80) 97 % of control; (endpoint: mean survival time, dose: 12.5 mg/kg/injection, schedule: Q01DX009 (ip), vehicle: saline with Tween-80) 100 % of control; under setting [11], 101 % of control; (endpoint: mean survival time, dose: 25.0 mg/kg/injection, schedule: Q01DX009 (ip), vehicle: saline with Tween-80) 102 % of control; under setting [12], 95 % of control.
For `OCC1OC(n2cnc3c(SCc4ccccc4)ncnc32)C(O)C1O` (stereo not drawn), the T/C runs as follows: (endpoint: mean survival time, dose: 78.0 mg/kg/injection, schedule: Q01DX001 (ip), vehicle: saline) 104 % of control; under setting [9], 101 % of control; (endpoint: mean survival time, dose: 117.0 mg/kg/injection, schedule: Q01DX001 (ip), vehicle: saline) 109 % of control; (endpoint: mean survival time, dose: 132.0 mg/kg/injection, schedule: Q01DX009 (ip), vehicle: saline) 176 % of control; (endpoint: mean survival time, dose: 200.0 mg/kg/injection, schedule: Q01DX009 (ip), vehicle: saline) 187 % of control; under setting [10], 98 % of control. For the same compound, the T/C is 152 % of control (endpoint: mean survival time, dose: 400.0 mg/kg/injection, schedule: Q01DX001 (ip), vehicle: other) and 104 % of control (endpoint: mean survival time, dose: 400.0 mg/kg/injection, schedule: Q04DX003 (ip), vehicle: saline).
As for `N=C(N)c1nn(C2OC(CO)C(O)C2O)c2nc[nH]c(=O)c12` (stereo not drawn), the T/C by setting is: (endpoint: median survival time, dose: 3.12 mg/kg/injection, schedule: Q01DX005 (ip), vehicle: Klucel + Tween-80) 122 % of control; (endpoint: median survival time, dose: 12.5 mg/kg/injection, schedule: Q01DX005 (ip), vehicle: Klucel + Tween-80) 153 % of control; (endpoint: median survival time, dose: 25.0 mg/kg/injection, schedule: Q01DX005 (ip), vehicle: Klucel + Tween-80) 120 % of control and 89 % of control.
Regarding `Cc1cc(Cl)ccc1NC(=O)Nc1ccccc1C(N)=O`, the T/C was 95 % of control under setting [6], 95 % of control under setting [7] and 91 % of control under setting [13].
`Cc1ccccc1NC(=O)Oc1ccc(-c2ccccc2)cc1Cl`: the T/C runs as follows: under setting [1], 86 % of control; under setting [2], 89 % of control; under setting [8], 93 % of control.
In the case of `CCCCCCCC(=O)Nc1cc(C)ccc1C`, the T/C under setting [7] was 94 % of control; the T/C under setting [3] is 98 % of control; the T/C under setting [13] was 94 % of control; the T/C under setting [4] is 97 % of control; the T/C under setting [14] was 98 % of control; the T/C under setting [5] is 98 % of control.
Regarding `CCOC(=O)C(Cc1cccc2ccccc12)P(=O)(OCC)OCC` (stereo not drawn), the T/C runs as follows: (endpoint: mean survival time, dose: 100.0 mg/kg/injection, schedule: Q01DX001 (ip), vehicle: saline) 108 % of control; (endpoint: mean survival time, dose: 200.0 mg/kg/injection, schedule: Q01DX001 (ip), vehicle: saline) 108 % of control; (endpoint: mean survival time, dose: 400.0 mg/kg/injection, schedule: Q01DX001 (ip), vehicle: saline) 106 % of control.
Turning to `COC(=O)C(C(=O)OC)(C(=O)OC)C(=O)c1ccccc1`, the T/C was 104 % of control (endpoint: mean survival time, dose: 100.0 mg/kg/injection, schedule: Q01DX001 (ip), vehicle: saline with Tween-80); 96 % of control (endpoint: mean survival time, dose: 200.0 mg/kg/injection, schedule: Q01DX001 (ip), vehicle: saline with Tween-80); 93 % of control (endpoint: mean survival time, dose: 400.0 mg/kg/injection, schedule: Q01DX001 (ip), vehicle: saline with Tween-80).
Turning to `CCOP(=O)(OCC)/C(C#N)=C\c1ccc(O)c(OC)c1`, the T/C is 98 % of control under setting [3], 101 % of control under setting [4] and 96 % of control under setting [5].
Regarding `O=C1OC(c2ccccc2)c2ccccc21` (stereo not drawn), the T/C reads like this: under setting [7], 95 % of control; under setting [13], 100 % of control; under setting [14], 92 % of control.
Turning to `C(=Nc1ccccc1)c1ccc(C=Nc2ccccc2)cc1`, the T/C under setting [7] was 106 % of control; the T/C (endpoint: mean survival time, dose: 100.0 mg/kg/injection, schedule: Q04DX003 (ip), vehicle: saline sonified) is 97 % of control; the T/C under setting [13] is 94 % of control; the T/C (endpoint: mean survival time, dose: 200.0 mg/kg/injection, schedule: Q04DX003 (ip), vehicle: saline sonified) was 102 % of control; the T/C (endpoint: mean survival time, dose: 400.0 mg/kg/injection, schedule: Q04DX003 (ip), vehicle: saline sonified) was 97 % of control.
With `CCc1ncc(C(C)(O)c2ccc(C)cc2)n1Cc1ccccc1` (stereo not drawn), the T/C by setting is: under setting [7], 92 % of control; under setting [13], 90 % of control; under setting [14], 97 % of control.
